Measurements published in patent publication US6555692B1, “Preparation and use of bifunctional molecules having DNA sequence binding specificity” (California Institute of Technology, priority 1996, dated 2003).

Assays:
5′-gcggtTGTCAacccg-3′ = assay: Recognition of 9-11 base pairs (Table 9); assay type: binding; settings: 22° C. and pH 7.0
Source text: (§1) Table 9 illustrates recognition of recognition of 9-11 base pairs by ImPyPy-X-ImPyPy-β-Dp.

5′-TGTCAAGACA-3′ = assay: Recognition of 9-11 base pairs (Table 9); assay type: binding; settings: 22° C. and pH 7.0
Source text: as §1

5′-TGTCAGACA-3′ = assay: Recognition of 9-11 base pairs (Table 9); assay type: binding; settings: 22° C. and pH 7.0
Source text: as §1

5′-TGTCAAAGACA-3′ = assay: Recognition of 9-11 base pairs (Table 9); assay type: binding; settings: 22° C. and pH 7.0
Source text: as §1

5′-AACCAAGTCTTGGTA-3′ = assay: Association constants, recognition of 15 base pairs; settings: for Ka Match: Table 5, ImPyPy-X-ImImPy-γ-PyPyPy-β-Dp, 24° C., pH 7.0; for Specificity Center mismatch / Specificity Edge mismatch: Table 5; for Specificity Center mismatch: match vs 5′-AACCAACTGTTGGTA-3′; for Specificity Edge mismatch: match vs 5′-AACCAAGTCTTGCGA-3′
[1] = tested on: 5 to 10 base pair sites based on a 5′-TGACA-3′ core sequence; assay: Footprint titration of three- to eight-ring polyamide dimers (Table 2); assay type: binding; settings: 22° C., pH 7.0; for association constant: mean of at least three footprint titrations
Source text: To determine the effect of polyamide length on binding site size, binding affinity, and sequence specificity, a series of six polyamides containing three to eight rings was synthesized. (Kelly, et al. Proc. Natl. Acad. Sci. U.S.A. 93, 6981-6985 (1996).) The series is based on ImPyPy-Dp with pyrrolecarboxamide moieties added sequentially to the C-termini to afford ImPyPyPy-Dp, ImPyPyPyPy-Dp, ImPyPyPyPyPy-Dp, ImPyPyPyPyPyPy-Dp, and ImPyPyPyPyPyPyPy-Dp which are designed to bind 5 to 10 base pair sites, respectively as side-by-side antiparallel dimers. DNA binding sites are based on a 5′-TGACA-3′ core sequence and contain sequential A,T inserts in the center of the binding site that will be recognized by the additional pyrrole carboxamides.

| Molecule | Ka Match (5′-AACCAAGTCTTGGTA-3′) [M⁻¹] | Specificity Center mismatch (5′-AACCAAGTCTTGGTA-3′) | Specificity Edge mismatch (5′-AACCAAGTCTTGGTA-3′) | specificity (ratio of match site affinity to affinity of the single base pair mismatch site) [1] | association constant [1] [M⁻¹] | also measured |
| --- | --- | --- | --- | --- | --- | --- |
| CN(C)CCCNC(=O)CCNC(=O)c1cc(NC(=O)c2cc(NC(=O)c3nc(NC(=O)CCCCCCNC(=O)c4cc(NC(=O)c5cc(NC(=O)c6nccn6C)cn5C)cn4C)cn3C)cn2C)cn1C [ImPyPy-C7-ImPyPy-β-Dp] |  |  |  |  |  | 5′-gcggtTGTCAacccg-3′ (5′-gcggtTGTCAacccg-3′): 7 × 10^7; 5′-TGTCAAGACA-3′ (5′-TGTCAAGACA-3′): 1 × 10^8; 5′-TGTCAGACA-3′ (5′-TGTCAGACA-3′): 2 × 10^7; 5′-TGTCAAAGACA-3′ (5′-TGTCAAAGACA-3′): 3 × 10^7 |
| CN(C)CCCNC(=O)CCNC(=O)c1cc(NC(=O)c2cc(NC(=O)c3cc(NC(=O)CCCNC(=O)c4cc(NC(=O)c5nc(NC(=O)c6nc(NC(=O)CCCCCCCNC(=O)c7cc(NC(=O)c8cc(NC(=O)c9nccn9C)cn8C)cn7C)cn6C)cn5C)cn4C)cn3C)cn2C)cn1C [ImPyPy-C8-ImImPy-γ-PyPyPy-β-Dp, ImPyPy-X-ImImPy-γ-PyPyPy-β-Dp] | 2e+08 | 10 | 10 |  |  |  |
| CN(C)CCCNC(=O)c1cc(NC(=O)c2cc(NC(=O)c3nccn3C)cn2C)cn1C [ImPyPy-Dp] |  |  |  | 6.5-fold | 130000 |  |
| CN(C)CCCNC(=O)CCNC(=O)c1cc(NC(=O)c2cc(NC(=O)c3cc(NC(=O)CCCNC(=O)c4cc(NC(=O)c5nc(NC(=O)c6nc(NC(=O)CCCCNC(=O)CCNC(=O)c7cc(NC(=O)c8cc(NC(=O)c9nccn9C)cn8C)cn7C)cn6C)cn5C)cn4C)cn3C)cn2C)cn1C [ImPyPy-β-C5-ImImPy-γ-PyPyPy-β-Dp, ImPyPy-X-ImImPy-γ-PyPyPy-β-Dp] | 1e+08 | 2 | 2 |  |  |  |
| Cn1cc(NC(=O)c2cc(NC(=O)c3cc(NC(=O)CCCNC(=O)c4cc(NC(=O)c5nc(NC(=O)c6nc(NC(=O)CCNC(=O)CCNC(=O)c7cc(NC(=O)c8cc(NC(=O)c9nccn9C)cn8C)cn7C)cn6C)cn5C)cn4C)cn3C)cn2C)cc1C(=O)NCCCO [ImPyPy-β-β-ImImPy-γ-PyPyPy-C3—OH] |  |  |  |  |  | Ka 5′-AACCAAGTCTTGGTA-3′ (5′-AACCAAGTCTTGGTA-3′; Table 7, C3-OH polyamides, match site): 1 × 10^8; Specificity 5′-AACCAACTGTTGGTA-3′ (5′-AACCAAGTCTTGGTA-3′; Table 7, center mismatch): 3; Specificity 5′-AACCAAGTCTTGCGA-3′ (5′-AACCAAGTCTTGGTA-3′; Table 7, edge mismatch): 3 |
| CN(C)CCCNC(=O)CCNC(=O)c1cc(NC(=O)c2cc(NC(=O)c3cc(NC(=O)CCCNC(=O)c4cc(NC(=O)c5nc(NC(=O)c6nc(NC(=O)CCNC(=O)CCNC(=O)c7cc(NC(=O)c8cc(NC(=O)c9nccn9C)cn8C)cn7C)cn6C)cn5C)cn4C)cn3C)cn2C)cn1C [ImPyPy-β-β-ImImPy-γ-PyPyPy-β-Dp, ImPyPy-X-ImImPy-γ-PyPyPy-β-Dp] | 3e+08 | 2 | 2 |  |  |  |
| CN(C)CCCNC(=O)CCNC(=O)c1cc(NC(=O)c2cc(NC(=O)c3cc(NC(=O)CCCNC(=O)c4cc(NC(=O)c5nc(NC(=O)c6nc(NC(=O)CCCNC(=O)c7cc(NC(=O)c8cc(NC(=O)c9nccn9C)cn8C)cn7C)cn6C)cn5C)cn4C)cn3C)cn2C)cn1C [ImPyPy-γ-ImImPy-γ-PyPyPy-β-Dp, ImPyPy-X-ImImPy-γ-PyPyPy-β-Dp] | 1e+07 | 1 | 1 |  |  |  |
| CN(C)CCCNC(=O)c1cc(NC(=O)c2cc(NC(=O)c3cc(NC(=O)c4nccn4C)cn3C)cn2C)cn1C [ImPyPyPy-Dp] |  |  |  | 5.3-fold | 8.5e+06 |  |
| CN(C)CCCNC(=O)c1cc(NC(=O)c2cc(NC(=O)c3cc(NC(=O)c4cc(NC(=O)c5cc(NC(=O)c6cc(NC(=O)c7nccn7C)cn6C)cn5C)cn4C)cn3C)cn2C)cn1C [ImPyPyPyPyPyPy-Dp] |  |  |  | 2.8-fold | 4.7e+07 |  |
| ImPyPyPyPy-Dp |  |  |  | 5.7-fold | 4.5e+07 |  |
| ImPyPyPyPyPy-Dp |  |  |  | 2.7-fold | 5.3e+07 |  |
| ImPyPyPyPyPyPyPy-Dp |  |  |  | 1-fold | <2e+07 |  |
